Assay results published in the METLIN SMRT retention time set (Domingo-Almenara et al. 2019).

Assay: gradient 5% acetonitrile 3 min, to 50% in 2 min, to 85% in 15 min, held 3 min, 100 µL/min
Conditions: column: Zorbax Extend-C18 2.1 x 50 mm; eluents: water / acetonitrile, 0.1% formic acid
Summary of the method: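 Retention time was recorded from adduct peaks, which were picked computationally and each inspected manually. Pure standards ran in mixtures of ~100 molecules on HPLC coupled to a quadrupole time-of-flight mass spectrometer, in positive and negative ionization mode, through a Zorbax Extend-C18 column (2.1 × 50 mm, 1.8 μm) at 100 μL/min. Eluents were water and acetonitrile, each with 0.1% formic acid.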

| SMILES | RP-LC retention time [s] |
| --- | --- |
| CCOc1ncccc1CNC(=O)CNC(C)=O | 568 |
| Fc1ccc(-c2noc(Cc3nc(-c4cccc(Cl)c4)cs3)n2)cc1 | 1350 |
| COCCn1cc2c3c(cccc31)CN(C(=O)Nc1ccc(C)cc1C)CC2 | 970 |
| COc1ccc(Br)c(C(=O)NCC#CCN(C(C)C)C(C)C)c1 | 567 |
| Cc1cc(NC(=O)C2CCN(C(=O)c3cccc(-n4cnnn4)c3)CC2)no1 | 621 |
| CC(C)N1CC(CNC(=O)c2ccc(Cl)s2)C2(CCCCC2)C1 (stereo unspecified) | 694 |
| CC(=O)c1ccc(NC(=O)Cn2cccc2-c2nc(-c3ccc4c(c3)OCO4)no2)cc1 | 923 |
| Cc1ccc2nc(-c3ccccc3O)c(Nc3ccccc3C)n2c1 | 751 |
| Cc1nc(-c2cccc(-c3noc(-c4ccc5cc[nH]c5c4)n3)c2)cs1 | 1230 |
| CC(=O)c1ccc2c(c1)[C@H](NC(=O)c1ccc(F)c(Cl)c1)[C@H](O)C(C)(C)O2 | 944 |
| CCOC(=O)C1CCCN(Cc2nc(-c3cc(OC)c(OC)c(OC)c3)no2)C1 (stereo unspecified) | 774 |
| Cc1ccc(Sc2c(-c3ccccc3)nc3ncccn23)cc1 | 1040 |
| CCN1C(=O)c2cccnc2Sc2cc(NC(=O)c3ccccc3)ccc21 | 812 |
| COc1ccc(C(=O)C(C)OC(=O)C(C)N2C(=O)c3ccccc3C2=O)cc1 (stereo unspecified) | 913 |
| COc1cc2c(c3oc4cccc(O)c4c(=O)c13)C1C=CO[C@@H]1O2 (stereo partly specified) | 989 |
| CCC(Oc1ccc(-c2cnc3ccccc3n2)cc1)C(=O)N1CCN(c2ncccn2)CC1 (stereo unspecified) | 942 |
| CCOC(=O)CNC(=O)NC1CCN(C2=NS(=O)(=O)C(c3ccc(C)cc3)=C2C)CC1 | 743 |

| SMILES | RP-LC retention time [s] |
| --- | --- |
| CSc1cccc(NC(=O)c2[nH]c3cc(C)sc3c2CN2CCOCC2)c1 | 733 |
| CCn1cc(C(=O)Nc2ccc(F)c(C)c2)c2cccnc21 | 896 |
| CCN1C(=O)COc2ccc(-c3csc(NC(=O)CCC4CCCCC4)n3)cc21 | 934 |
| CCOC(=O)c1ccc2ncc(C(=O)OCC)c(NCCN(C)C)c2c1 | 569 |
| CCc1ccc(NC(=O)Cn2c(=O)c(CCC(=O)NCC(C)C)nc3ccccc32)cc1 | 878 |
| COc1ccc(CNC(=O)COc2ccc(NC(=O)C3CC3)cn2)cc1OC | 666 |
| CCOCC(=O)N1CCC(Oc2nccnc2N2CCOCC2)C1 (stereo unspecified) | 640 |
| O=C(NCC1(c2cccs2)CC1)c1cnccn1 | 736 |
| CN(C)C(CNC(=O)c1cc(-c2ccc3c(c2)OCCO3)on1)c1ccc(F)cc1 (stereo unspecified) | 681 |
| Cc1cc(C)n(Cc2nc(-c3ccc(NC(=O)c4ccc5c(c4)OCO5)cc3)oc2C)n1 | 888 |
| O=C(NC1CCCCC1)C1CCN(c2cncnc2N2CCCCC2)CC1 | 672 |
| O=C(Cn1c(=O)oc2ccccc21)Nc1nc(-c2ccc(Br)cc2)cs1 | 1050 |
| COc1ccc(CNC(=O)c2cnc(N3CCC4(CC3)OCCO4)nc2N)c(OC)c1 | 640 |
| CCOC(=O)c1cnc2nc(C)ccc2c1Nc1cc(OC)cc(OC)c1 | 720 |
| O=C(NOC[C@H](O)CO)c1ccc(F)c(F)c1Nc1ccc(I)cc1F | 886 |
| CC(C)c1ccccc1NS(=O)(=O)c1cc(-c2nc(C(C)(C)C)cs2)cs1 | 603 |
| COc1cc([C@@H]2c3cc4c(cc3[C@H](O)[C@@H](CO)[C@@H]2C(=O)N2CCN(C)CC2)OCO4)cc(OC)c1OC | 600 |

Continued, values first:

| RP-LC retention time [s] | SMILES |
| --- | --- |
| 763 | Cc1ccc2c(c1)C(=O)NC1(CCN(C(=O)NC3CCCCC3)CC1)N2C |
| 661 | COCCNC(=O)C1CCN(c2cnn(Cc3ccccc3)c(=O)c2)CC1 |
| 875 | CCc1noc(NC(C)=O)c1-c1ccc(C)c(S(=O)(=O)Nc2ccc(F)c(Cl)c2)c1 |
| 777 | Cc1cccc(Cn2nc3c(S(=O)(=O)N4CCOCC4)cccn3c2=O)c1 |
| 878 | Cc1nc(-c2csc(S(=O)(=O)N3CCC(C(=O)Nc4ccccc4)CC3)c2)no1 |
| 735 | Cc1nc(N2CCN(c3ccccn3)CC2)nc2c1C(=O)CC(c1ccccc1F)C2 (stereo unspecified) |
| 722 | O=c1ccc(-n2cccn2)nn1CCNS(=O)(=O)c1ccc(F)c(Cl)c1 |
| 589 | CN(C)C(CNC(=O)Nc1ccccc1Cl)c1cn(C)c2ccccc12 (stereo unspecified) |
| 631 | CCC1CCCCN1CCCNC(=O)c1cn(CCOC)c(=O)c2c1c1ccccc1n2C (stereo unspecified) |
| 758 | Cc1ccc(CC(=O)N2CCN(c3cc(-c4cccs4)[nH]n3)CC2)cc1 |
| 1030 | Cn1c(C(=O)N2CCN(c3cccc(Cl)c3)CC2)cc2c(=O)oc3ccccc3c21 |
| 785 | C=Cc1ccc(CN2CCCN(c3ncccc3-c3nc(C(C)C)no3)CC2)cc1 |
| 991 | O=c1n(Cc2ccc(Cl)cc2)nc2c(S(=O)(=O)N3CCCCCC3)cccn12 |
| 628 | CC(=O)N1CCN(c2nc3c(s2)CC(C(=O)Nc2cccc(Cl)c2)CC3)CC1 (stereo unspecified) |
| 702 | CC1=C(c2ccccc2)S(=O)(=O)N=C1N1CCCN(C(=O)C2CCCO2)CC1 (stereo unspecified) |
| 491 | O=C(c1ccc2ncccc2c1)N1CCC(c2nc(C3CC3)n[nH]2)CC1 |

| RP-LC retention time [s] | SMILES |
| --- | --- |
| 738 | Cc1ccc(Cl)cc1N(C)C(=O)Cn1ccc2c(=O)n(C)c(=O)n(C)c21 |
| 814 | Cc1ccc(S(=O)(=O)c2nc(C)oc2NCc2ccco2)cc1 |
| 1080 | O=C(C1CCN(c2nc3ccc(-c4ccc(F)cc4)nc3s2)CC1)N1CCCCC1 |
| 704 | CC(C)n1c(CCNC(=O)c2ccc(Cl)cc2)nc2cccnc21 |
| 1000 | O=S(=O)(c1ccc(OC(F)(F)F)cc1)N1CCC(c2nnc(C(F)(F)F)o2)CC1 |
| 905 | N#CCc1ccc(NC(=O)C2CCCN(S(=O)(=O)Cc3ccc(Cl)cc3)C2)cc1 (stereo unspecified) |
| 668 | O=C(Cn1nc2c(cc1=O)CCCC2)Nc1ccc(N2CCCS2(=O)=O)cc1 |
| 1160 | CCCNC(=O)C1CCN(c2ccc(SCC(=O)Nc3c(C)cccc3Cl)nn2)CC1 |
| 606 | Cc1nn(Cc2ccc(C(=O)N3CCN(c4ccccn4)CC3)cc2)c(C)c1S(=O)(=O)N(C)C |
| 636 | CCC1CN2C=NC(N3CCN(C(=O)c4nn(C)c5ccccc45)CC3)=CC2=N1 (stereo unspecified) |
| 912 | CCN(C(=O)C1CCCN(c2ncnc3c2nc2n3CCCCC2)C1)c1cccc(Cl)c1 (stereo unspecified) |
| 790 | CC1CCN(C(=O)c2ccc(CN3C(=O)C4CCCN4C(=O)c4ccccc43)cc2)CC1 (stereo unspecified) |
| 671 | CCOc1cc(=O)n2c(c1C(=O)NC1CCCC1)CCCCC2 |
| 638 | CC(C)Oc1ccccc1CN1CC[C@@H]2CN(S(C)(=O)=O)[C@@H]2C1 |
| 588 | O=C(NCCN1CCN(c2ccc(F)cc2)CC1)C(=O)NCc1ccc(F)cc1 |
| 751 | CCS(=O)(=O)N1CCCN(c2ccc(=O)n(-c3ccc(C)cc3)n2)CC1 |
